Measured values published in US20070270350A1, “Methods and Compositions for the Prevention and Treatment of Inflammatory Diseases or Conditions” (MUSC FOUNDATION FOR RESEARCH DEVELOPMENT, priority 2003, published 2007).
“Also recorded” adds a separate entry of the source.

Key:
small GTPase Ras = assay: Quantification of Ras activation (GST-Raf-1 Ras binding domain); assay type: cell-based, rat; settings: D-PDMP 50 μM pretreatment; LPS/IFN 5 mins
Procedure: Quantification of Ras Activation. After stimulation, primary astrocytes in 6 well plates were washed with PBS and lysed in membrane lysis buffer (MLB; 0.5 ml of 25 mM HEPES, pH7.5, 150 mM NaCl, 1% Igepal CA-630, 0.25% sodium deoxycholate, 10% glycerol, 10 mM MgCl2, 1 mM EDTA, 25 mM NaF, 1 mM of sodium orthovanadate, and EDTA free Complete™ protease inhibitor cocktail). After centrifugation (5,000×g) at 4° C. for 5 min, supernatant was used for Ras activation assay. One hundred μg of supernatant was used for binding with agarose conjugated Ras-binding domain (RBD) of Raf-1 which was expressed in BL21 (Invitrogen) Escherichia coli strain transformed by pGEX-2T-GST-RBD in the presence of 0.1 mM of IPTG as described previously (Herrmann et al., 1995). The binding reaction was performed at 4° C. for 30 min in MLB. Following washing with MLB three times, Ras-RBD complex were denatured by adding of 2×SDS sample buffer. Ras protein was identified by western immunoblot analysis with Ras antibodies from Upstate Biotechnology.

iNOS = assay: LPS/IFN-induced NO production and iNOS expression in C6 glioma cells; assay type: cell-based, rat; settings: D-PDMP 10, 25, 50 μM, 0.5 hr pretreatment
Procedure: C6 rat glioma cells obtained from ATCC were maintained in Dulbecco's modified Eagle's medium (DMEM) (GIBCO, CA) containing 10% fetal bovine serum (FBS) (GIBCO) and 10 ? g/ml gentamicin. All the cultured cells were maintained at 37° C. in 5% CO2/95% air. At 80% confluency, the cells were incubated with serum free DMEM medium for 24 h prior to the incubation with LPS/IFN ? and other chemicals. Assay for NO production. Cells were cultured in 12-well plastic tissue culture plates. After the appropriate treatment, production of NO was determined by an assay of the culture supernatant for nitrite (Green et al., 1982). Briefly, 100 μl of culture supernatant was allowed to react with 100 μl of Griess reagent. The optical density of the assay samples was measured spectrophotometrically at 570 nm. Nitrite concentrations were calculated from a standard curve derived from the reaction of NaNO2 in fresh media. Western Blot Analysis. […] The protein concentration of samples was determined with the detergent compatible protein assay reagent (Bio-Rad Laboratories, CA) using bovine serum albumin (BSA) as the standard. Sample was boiled for 3 min with 0.1 volumes of 10% O-mercaptoethanol and 0.5% bromophenol blue mix. Fifty μg of total cellular protein was resolved by electrophoresis in 8 or 12% polyacrylamide gels, electro-transferred to polyvinylidene difluoride (PVDF) filter and blocked with Tween 20 containing Tris-buffered saline [TBST; 10 mM Trizma base (pH 7.4), 1% Tween 20, and 150 mM NaCl] with 5% skim milk. After incubation with antiserum against iNOS (BD PharMingen, CA), or hRas (Upstate Biotechnology, CA), or phospho-specific MAPK (p42/44) (Signal Transduction), in PVDF buffer for 2 h at room temperature, the filters were washed 3 times with TBST buffer and then incubated with horseradish peroxidase conjugated anti-rabbit or mouse IgG for 1 h. The membranes were autoradiographed by using ECL-plus (Amersham Pharmacia Biotech) after washing with TBST buffer. RT-PCR amplification. […] PCR amplification was conducted in 25 ? l of reaction mixture with 1.0 ? l of cDNA, […] and under the manufacturer's Taq polymerase conditions (Takara, […] Shuzo Co. Ltd, Japan). The sequence of primers used for PCR amplification are as follows; iNOS, (Forward-[NT], Reverse-[NT]), GalT-2 (Forward-[NT], Reverse-[NT]), GAPDH (Forward-[NT], Reverse-[NT]).

SCI rats = assay type: in vivo
[1] = D-PDMP 20 mg/kg, 24 hrs following injury

Compound: CCCCCCCCCC(=O)NC(CN1CCOCC1)C(O)c1ccccc1.Cl [D-PDMP, D-threo-1-Phenyl-2-decanoylamino-3-morpholino-1-propanol HCl]
- LPS/IFN mediated activation of Ras (small GTPase Ras): reduced
- LPS/IFN induced NO production (iNOS): inhibited
- iNOS protein and mRNA levels (iNOS): inhibited
- iNOS mRNA and protein expression at the site of injury (SCI rats; D-PDMP 20 mg/Kg i.p. within 10 minutes following SCI, 12 hrs): markedly suppresses; also recorded: significantly lower
- GFAP expression (immunofluorescence, lesion epicenter) (SCI rats; [1]): significantly reduced
- iNOS expression (immunofluorescence, lesion epicenter) (SCI rats; [1]): significantly reduced
- SCI induced white matter vacuolization and tissue necrosis (H&E) (SCI rats; D-PDMP treated SCI rats): inhibited
- apoptosis of neurons and other cells (TUNEL/NeuN) (SCI rats; D-PDMP treated SCI rats): protection against apoptosis
- demyelinization (LFB staining) (SCI rats; D-PDMP treated SCI rats): attenuated
- adverse effect on neuronal survival (SCI rats; D-PDMP treated sham operated animals): no adverse effect
